The text below walks through data of PubChem BioAssay (NCI).

Test systems include UACC-257 melanoma; K-562 leukemia; NCI-H522 lung; EKVX NSCLC; CCRF-CEM leukemia; HCT-15 colon; LOX IMVI melanoma; OVCAR-8 ovarian; CAKI-1 renal.
Holding throughout (assay): NCI tumour cell line growth inhibition, 48 h

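Protocol summary: plate cells (96-well), add compound at 5 concentrations, incubate 48 h, interpolate endpoints linearly. At the TGI there is no net growth.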 A value given as a limit tells only on which side of the number the result lay.

As for `Nc1cc(O)c2cc(N=Nc3ccc(N=Nc4ccc(N=Nc5ccc6cc(S(=O)(=O)O)cc(S(=O)(=O)O)c6c5)c5ccccc45)c4cc(S(=O)(=O)O)ccc34)c(S(=O)(=O)O)cc2c1`, the TGI is greater than 100 µM with UACC-257 melanoma; greater than 31.6 µM in the test with K-562 leukemia; greater than 100 µM in the test on NCI-H522 lung; greater than 100 µM in the test on EKVX NSCLC; greater than 100 µM in the test on CCRF-CEM leukemia; greater than 100 µM in the test on HCT-15 colon. The TGI in the test on LOX IMVI melanoma and with OVCAR-8 ovarian was greater than 100 µM in each case.
In the case of `NS(=O)(=O)c1cc2c(cc1Cl)NC(C(=O)NNC(=O)c1ccncc1)=NS2(=O)=O`, the TGI in the test on UACC-257 melanoma, with NCI-H522 lung, with EKVX NSCLC, in the test on CCRF-CEM leukemia, with HCT-15 colon and in the test on LOX IMVI melanoma was greater than 100 µM throughout. The TGI with OVCAR-8 ovarian and with CAKI-1 renal was greater than 100 µM throughout.
`C(/Cc1ccc2c(c1)OCO2)=N\NC1=NCCCCN1`: the TGI in the test on UACC-257 melanoma, in the test on K-562 leukemia, with NCI-H522 lung, in the test with EKVX NSCLC, in the test with CCRF-CEM leukemia and with HCT-15 colon was greater than 100 µM each time. For the same compound, the TGI in the test on LOX IMVI melanoma and in the test with OVCAR-8 ovarian was greater than 100 µM in each case.
With `NS(=O)(=O)C1CCCCC1C(=O)NNC(=O)C(=O)Nc1nc(=S)[nH][nH]1` (centres undefined), the TGI with UACC-257 melanoma, with K-562 leukemia, with NCI-H522 lung, with EKVX NSCLC, in the test with CCRF-CEM leukemia and in the test on HCT-15 colon was greater than 100 µM each time. The TGI in the test on LOX IMVI melanoma, in the test on OVCAR-8 ovarian and in the test on CAKI-1 renal was greater than 100 µM in each case.
In the case of `Nc1nc(Nc2cc(F)c(Cl)c(F)c2)cc(=O)[nH]1`, the TGI with UACC-257 melanoma, with NCI-H522 lung, in the test on EKVX NSCLC, with CCRF-CEM leukemia, in the test with HCT-15 colon and in the test with LOX IMVI melanoma was greater than 100 µM throughout. Also, the TGI with OVCAR-8 ovarian and with CAKI-1 renal was greater than 100 µM each time.
Take `CCCCCCCCCCCC1=C(O)C(=O)C=C(O)C1=O`: the TGI in the test on UACC-257 melanoma was determined as 16.7 µM; with K-562 leukemia it was 75.9 µM; in the test on NCI-H522 lung it was 66.5 µM; in the test with EKVX NSCLC, 15.6 µM; with CCRF-CEM leukemia, 36.7 µM; with HCT-15 colon it was 49.3 µM. The TGI in the test with LOX IMVI melanoma came to 38 µM; with OVCAR-8 ovarian, 4.7 µM; with CAKI-1 renal, 15.7 µM.
Turning to `Cn1c(=O)c(C#N)c(O)c2cc3ccccc3nc21`, the TGI in the test with UACC-257 melanoma, with K-562 leukemia, in the test on EKVX NSCLC, in the test with CCRF-CEM leukemia, with HCT-15 colon and with LOX IMVI melanoma was greater than 100 µM each time. In addition, the TGI in the test on OVCAR-8 ovarian and with CAKI-1 renal was greater than 100 µM in each case.
`Cc1c(N(Cc2ccccc2)Cc2ccccc2)nc(S(C)(=O)=O)nc1S(C)(=O)=O`: the TGI was determined as 3.76 µM in the test with UACC-257 melanoma; 4.83 µM in the test on K-562 leukemia; 3.14 µM in the test on NCI-H522 lung; 3.01 µM in the test with EKVX NSCLC; 5.15 µM with CCRF-CEM leukemia; 6.4 µM in the test with HCT-15 colon. Moreover, the figures for the TGI in the test on LOX IMVI melanoma, with OVCAR-8 ovarian and in the test with CAKI-1 renal were 3.24 µM, 3.29 µM and 20.2 µM, respectively.
Take `N#Cc1c2c(c(Nc3ccc(Cl)cc3)n3c1nc1ccccc13)CCCC2`: the TGI with UACC-257 melanoma, in the test with K-562 leukemia, in the test on NCI-H522 lung, with EKVX NSCLC, in the test on CCRF-CEM leukemia and with HCT-15 colon was greater than 100 µM throughout. For the same compound, the TGI with LOX IMVI melanoma, in the test on OVCAR-8 ovarian and with CAKI-1 renal was greater than 100 µM throughout.
In the case of `CCCCC(C)(C/C=C/[C@@H]1[C@@H](C(O)CCCCCC(=O)OC)C(=O)C[C@H]1O[Si](C)(C)C(C)(C)C)O[Si](C)(C)C` (some centres undefined), the TGI in the test with UACC-257 melanoma is greater than 100 µM; in the test on K-562 leukemia, greater than 100 µM; with NCI-H522 lung, greater than 100 µM; with EKVX NSCLC, greater than 100 µM; in the test with CCRF-CEM leukemia, 85.4 µM; in the test on HCT-15 colon it was greater than 100 µM. For the same compound, the TGI was greater than 100 µM in the test on LOX IMVI melanoma, greater than 100 µM in the test on OVCAR-8 ovarian and 78.1 µM in the test on CAKI-1 renal.
Consider `COc1ccc(-c2cc(-c3ccc(Nc4ccnc5cc(C(F)(F)F)ccc45)cc3)nc(N)c2C#N)c2ccccc12`, for which the TGI with EKVX NSCLC, in the test with HCT-15 colon, with LOX IMVI melanoma and in the test on CAKI-1 renal was greater than 100 µM each time.
Consider `O=[N+]([O-])c1cccc2c1[nH]c1c(-c3ccccc3)nccc12`, for which the TGI is 6.29 µM with UACC-257 melanoma; greater than 100 µM with K-562 leukemia; 4.27 µM in the test on NCI-H522 lung; greater than 29.5 µM with EKVX NSCLC; 21.9 µM with CCRF-CEM leukemia; greater than 38.5 µM in the test with HCT-15 colon. Moreover, the TGI in the test on LOX IMVI melanoma was determined as 10.7 µM; in the test with OVCAR-8 ovarian, 9.32 µM.
Consider `COc1ccc(Sc2ccccc2[N+](=O)[O-])cc1`, for which the TGI in the test with UACC-257 melanoma, with K-562 leukemia, in the test on EKVX NSCLC, in the test with CCRF-CEM leukemia, with HCT-15 colon and in the test on LOX IMVI melanoma was greater than 100 µM in each case. The compound also had a TGI in the test with OVCAR-8 ovarian greater than 100 µM.
